Results taken from patent US12622895B2, “Anti-neurodegenerative combinations and use for treatment of neurodegenerative diseases” (ALTO NEUROSCIENCE, INC., priority 2018, dated 2026).
Like-named read-outs stand apart in the source and are kept apart here.

Experiments:
alpha-synuclein = alpha-synuclein (Homo sapiens, UniProt P37840); details: cited from earlier work
MPTP-treated mice = details: 20 mg/kg; cited from earlier work
patients with PD = details: 25 mg-50 mg, alone or with levodopa; cited from earlier work
[1] = system: mice that received 6-hydroxydopamine; details: injection, 30 mg/kg; cited from earlier work
[2] = system: rat corticostriatal slices; details: 0.3, 1, 3 and 10 μM; cited from earlier work
[3] = system: A53T α-synuclein-induced neurodegeneration; details: cited from earlier work
Engrailed mutant mice = details: cited from earlier work
subjects = details: in vivo
PD patients = details: doses approved for the motor symptoms of PD; 535 PD patients; cited from earlier work
[4] = molecular target: human wild-type alpha-synuclein (Homo sapiens, UniProt P37840); details: by H2O2 plus cytochrome c; cited from earlier work
[5] = system: human neuroblastoma SH-SY5Y cells; details: cited from earlier work
[6] = system: α-synuclein in peripheral blood exosomes; details: PD patients, approved therapeutic doses; cited from earlier work
patients [7] = details: in vivo; cited from earlier work
patients [8] = details: 5 mg/day of pramipexole, cited from earlier work
mouse PD model = details: cited from earlier work
Parkinsonian patient = details: one patient, cited from earlier work
Caenorhabditis elegans = details: C. elegans; cited from earlier work
6-OHDA induced damage = details: toxin-induced model of PD; cited from earlier work
MPTP induced damage = details: toxin-induced model of PD; cited from earlier work
rodents = details: large doses, acute systemic administration; cited from earlier work
rodent = details: fluoxetine added to pramipexole; cited from earlier work
brain cell systems = details: cited from earlier work
animals = details: cited from earlier work
[9] = system: patients with secondary progressive multiple sclerosis; details: high-dose, 140 patients, cited from earlier work

NS(=O)(=O)Cc1noc2ccccc12 [zonisamide, benzo[d]isoxazol-3-ylmethanesulfonamide]
oligomerization (and aggregation) of alpha-synuclein in vitro (alpha-synuclein): inhibits the in vitro oligomerization and aggregation of alpha-synuclein | loss of nigral TH-positive neurons (MPTP-treated mice): reduced the loss of nigral TH-positive neurons | striatal dopamine depletion (MPTP-treated mice): attenuating the associated striatal dopamine depletion | motor symptoms (patients with PD): improve motor symptoms | loss of nigral dopamine neurons [1]: prevented the loss of nigral dopamine neurons | rotenone-induced toxicity (loss of corticostriatal field potential amplitude) [2]: significantly reduced the rotenone-induced toxicity | duration of the effect ([3]; after transgene injection): lasted at least eight weeks | survival of nigrostriatal dopamine neurons ([3]; oral, 40 mg/kg/day): no impact | pace of degeneration ([3]; oral, 40 mg/kg/day, four weeks after injection of the viral vector, versus control group): significantly delayed the pace of degeneration | survival of nigrostriatal dopaminergic neurons, striatal terminals and motor function (Engrailed mutant mice; chronic administration, versus saline): improved the survival of nigrostriatal dopaminergic neurons as well as their striatal dopaminergic terminals and motor function | brain-derived neurotrophic factor content in striatum and ventral midbrain (Engrailed mutant mice; versus saline-treated controls): increased

CCCN[C@H]1CCc2nc(N)sc2C1 [Pramipexole, (S)-6-propylamino-4,5,6,7-tetrahydro-1,3-benzothiazole-2-amine]
first intolerable dose reached (subjects; human): All subjects reached FID-1 | dose limiting toxicity (subjects): gastro-intestinal adverse events | oligomerization (and aggregation) of alpha-synuclein in vitro (alpha-synuclein): diminishes synuclein oligomer formation | neuroprotective (disease modifying) activity (PD patients): failed to evidence neuroprotective (i.e., disease modifying) activity | in vitro oligomerization of human wild-type alpha-synuclein [4]: decreases | aggregation of alpha-synuclein [5]: inhibit the aggregation of alpha-synuclein | magnitude of the effect on alpha-synuclein expression [6]: small | side effects of the approved doses, often dose-limiting (patients [7]): nausea, vomiting, somnolence, confusion, postural hypotension, and hallucinations as well as gastrointestinal disturbances | nausea, patients (patients [8]): 76% | vomiting, patients (patients [8]): 39% | patients not able to complete the study (patients [8]; presumably intolerable GI adverse events): 36% | toxic effects of rotenone on dopaminergic neurons (mouse PD model; mouse PD model): inhibits the toxic effects of rotenone on dopaminergic neurons | immunoreactivity for alpha-synuclein (mouse PD model; rotenone mouse PD model): reducing immunoreactivity for alpha-synuclein | hallucinations (Parkinsonian patient; extended-release formulation, pramipexole 4.5 mg/day with levodopa, entcapone, selegiline and zonisamide): induce hallucinations | hallucinations (Parkinsonian patient; immediate release formulation, same combination): not

CNCCC(Oc1ccc(C(F)(F)F)cc1)c1ccccc1 (stereo not drawn) [fluoxetine, 1-methylamino-3-phenyl-3-[4-(trifluoromethyl)phenoxy]propane]
amyloid-β oligomers (Caenorhabditis elegans): reducing amyloid-β oligomers | amyloid-β-induced paralysis (Caenorhabditis elegans): significantly delay | life span (Caenorhabditis elegans): extend life span | thermal stress resistance (Caenorhabditis elegans): increase thermal stress resistance | 6-OHDA induced damage (6-OHDA induced damage): protect against | MPTP induced damage (MPTP induced damage): protect against | extracellular concentrations of norepinephrine and dopamine (rodents): significant increase | activity of pramipexole in the forced swimming test (rodent): enhance the activity of pramipexole

CCC(C)(C)C(=O)O[C@H]1C[C@@H](C)C=C2C=C[C@H](C)[C@H](CC[C@@H]3C[C@@H](O)CC(=O)O3)[C@H]21 [simvastatin, (1S,3R,7S,8S,8aR)-8-{2-[(2R,4R)-4-hydroxy-6-oxotetrahydro-2H-pyran-2-yl]ethyl}-3,7-dimethyl-1,2,3,7,8,8a-hexahydronaphthalen-1-yl 2,2-dimethylbutanoate]
dopaminergic neurodegeneration (brain cell systems; 6-OHDA-lesioned cell model (Xu et al. 2013)): robust neuroprotection against dopaminergic neurodegeneration | consequences of the dopaminergic neurotoxin 6-OHDA (brain cell systems; brain cell systems): protect against the deleterious consequences of the dopaminergic neurotoxin 6-hydroxydopamine | consequences of dopaminergic neurotoxin MPTP (animals): protect against the deleterious consequences of dopaminergic neurotoxin MPTP | tolerability and safety [9]: well tolerated and safe | annualised rate of whole-brain atrophy ([9]; versus placebo): reduced the annualised rate of whole-brain atrophy compared with placebo
